From US20240041832A1, “METHODS AND COMPOSITIONS FOR TREATING EYE DISEASES” (JENIVISION INC., priority 2021, published 2024)
Read-outs that look alike come from different tables or passages of the source.

Key:
[1] = Rabbit bio-disposition, eye-drop to one eye (OD) (Example 2); type: in vivo, New Zealand rabbits
Protocol: In order to verify that drug delivery of JV-DE1 was essentially confined to ocular redistribution other than via the blood circulation following contact of the eye-drop with the anterior segment ocular surface tissues, a monocular drug application study was performed. JV-DE1 was formulated in 2.4% CrEL and 0.2% glycerol in pH 7.6 TBS. CrEL is polyoxyl 35 castor oil. Other names for polyoxyl 35 castor oil include macrogolglycerol ricinoleate, PEG-35 castor oil, and […]. Briefly, for the bio-disposition experiment, JV-DE1 was administered to one eye (OD) via ocular instillation to said eye at a dose of 0.12 mg/eye. Blood samples (1 mL) and were collected at 0, 0.5, 2, 6, and 24 h after a single eye-drop ocular administration. At each of the above time points, one animal was euthanized after blood collection and selected eye tissue samples were collected from both eyes. Aqueous humor, bulbar conjunctiva, anterior sclera, posterior sclera (in the optic nerve exit region), retina, cornea, ciliary body, and iris were collected and weighed. The samples were then stored in an ultra-low temperature freezer. JV-DE1 concentrations in the samples were subsequently determined by the LC-MS/MS method.
JV-DE1 was widely distributed in the ocular tissues of the eye (OD) that received the compound. The concentration of JV-DE1 in ocular tissue levels were well-maintained over an 8 hour period post-dosing but had declined by 24 hours. The cornea, anterior sclera, and bulbar conjunctiva had the highest levels of JV-DE1 in the treated eye, which was about 100-fold greater than the JV-DE1 levels in the ciliary body/iris, posterior sclera, and retina. The most significant finding was the unexpected level of JV-DE1 in the vitreous humor. […] JV-DE1 levels in the retina of the contralateral, untreated eye were, however, one-tenth of those in the treated eye. […] Only about 10% achieved the retina by delivery from the bloodstream.

vascular IP receptor = vascular IP receptor (Homo sapiens, UniProt P43119); details: Jones R L et al. (2006); cited from earlier work
Sequence of vascular IP receptor (P43119 whole entry): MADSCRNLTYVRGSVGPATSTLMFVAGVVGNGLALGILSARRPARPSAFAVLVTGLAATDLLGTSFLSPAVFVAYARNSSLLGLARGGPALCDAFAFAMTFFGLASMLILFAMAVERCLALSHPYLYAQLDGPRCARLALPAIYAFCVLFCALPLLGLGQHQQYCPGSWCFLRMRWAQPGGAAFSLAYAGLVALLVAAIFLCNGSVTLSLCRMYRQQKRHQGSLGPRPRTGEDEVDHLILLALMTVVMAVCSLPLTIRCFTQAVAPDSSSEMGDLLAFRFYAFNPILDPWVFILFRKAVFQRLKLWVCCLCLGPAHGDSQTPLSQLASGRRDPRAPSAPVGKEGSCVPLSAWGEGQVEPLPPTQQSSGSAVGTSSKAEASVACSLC

[2] = Rabbit pharmacokinetics and ocular tissue distribution, eye-drop to both eyes (Example 1); type: in vivo, New Zealand rabbits
Protocol: A retinal bioavailability study was performed on 4,5-dihydro-N-[4-[[4-(1-methylethoxy) phenyl] methyl] phenyl]-1H-imadazol-2-amine (assigned the coded notation JV-DE1). This study provided an indication that the compound formulated in an eye-drop and administered bilaterally to the anterior ocular surface was bioavailable in the retina. This pharmacokinetics and ocular tissue distribution study of JV-DE1 was performed in New Zealand rabbits. Briefly, […] (male) received JV-DE1 via ocular instillation to both eyes at a dose of 0.12 mg/eye. Blood samples (1 mL) were collected at 0, 0.5, 2, 4, 8, and 24 h after single ocular administration to both eyes. At each time point, one animal was euthanized after blood collection and then eye tissue samples were collected from both eyes. Aqueous humor, bulbar conjunctiva, anterior sclera, posterior sclera (in the optic nerve exit region), retina, cornea, ciliary body, and iris were collected and weighed. The samples were then stored in an ultra-low temperature freezer. Drug concentrations in the samples were subsequently determined by the LC-MS/MS method. Results are shown in FIG. 2A (right eye) and FIG. 2B (left eye).
JV-DE1 was widely distributed in the ocular tissues, and with no meaningful difference between the left and right eye, since drug administration was bilateral. JV-DE1 ocular tissue levels were well-maintained over an 8 hour period post-dosing but had declined by 24 hours. The cornea, anterior sclera, and bulbar conjunctiva had the highest levels of JV-DE1 in both eyes, whereas JV-DE1 levels were lower in those structures located within the globe. The most significant finding was the unexpectedly high levels of JV-DE1 in the retina and the posterior sclera, which underlies and supports the retina.

IP receptor = molecular target: T1, IP receptor (Homo sapiens, UniProt P43119); details: U.S. Pat. No. 9,321,745; cited from earlier work
T1 construct: VEGF release from human immune cells when macrophages were primed with TNFα; endogenous in cells; host or cells: human macrophages primed with TNFα
T1 sequence (P43119 whole entry): as above

PAF receptor = PAF receptor (Homo sapiens, UniProt P25105); details: Bley K R et al. (2006); cited from earlier work
Sequence of PAF receptor (P25105 whole entry): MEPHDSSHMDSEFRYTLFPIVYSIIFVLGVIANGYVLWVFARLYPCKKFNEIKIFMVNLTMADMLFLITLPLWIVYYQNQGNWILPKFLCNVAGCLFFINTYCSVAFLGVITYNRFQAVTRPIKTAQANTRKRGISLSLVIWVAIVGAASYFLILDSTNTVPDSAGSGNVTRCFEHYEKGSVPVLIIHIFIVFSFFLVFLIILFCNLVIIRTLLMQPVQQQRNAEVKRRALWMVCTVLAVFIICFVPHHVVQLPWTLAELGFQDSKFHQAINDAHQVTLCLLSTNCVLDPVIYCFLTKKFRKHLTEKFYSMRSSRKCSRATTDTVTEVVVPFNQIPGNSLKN

[3] = Biodistribution of JV-DE1 after single periorbital skin administration (Example 3); type: in vivo, cynomolgus monkeys; details: for concentration at 3 h / concentration at 6 h / concentration at 0.5 h / concentration at 24 h: topical; for concentration at 3 h: 160.58 μg/right eye; for concentration at 6 h: 162.23 μg/right eye; for concentration at 0.5 h: 179.12 μg/right eye; for concentration at 24 h: 159.26 μg/right eye
Protocol: An additional experiment on JV-DE1 involving determining its bio-disposition following topical application to the periorbital skin that surrounds the anterior portion of the globe was performed.
JV-DE1 was formulated in medium chain triglyceride (MCT) oil. An amount of about 0.16 mg of JV-DE1 formulation was administered to one eye (OD) by circumferential topical application to the periorbital skin that surrounds the anterior portion of the globe. […] The following representative tissues were collected; upper eyelid, cornea, retina, and vitreous humor. JV-DE1 concentrations in the samples were subsequently determined by the LC-MS/MS method. The results are summarized below in Table 1

[4] = 0.5 h, 179.120 μg/right eye periorbital skin
[5] = 3 h, 160.580 μg/right eye periorbital skin
[6] = 6 h, 162.230 μg/right eye periorbital skin
[7] = 24 h, 159.260 μg/right eye periorbital skin

In the case of `CC(C)Oc1ccc(Cc2ccc(NC3=NCCN3)cc2)cc1` [JV-DE1, 4,5-dihydro-N-[4-[[4-(1-methylethoxy)phenyl]methyl]phenyl]-1H-imadazol-2-amine], the Cmax ([1]; New Zealand, rabbit, plasma, topical or ocular, ocular instillation to one eye (OD), 0.12 mg/eye, at 0.5 hours post-dose) is reported as 0.95 ng/mL, the “retina level of contralateral untreated eye relative to treated eye” value ([1]; OS vs OD) is reported as “one-tenth” and the “share of drug reaching the retina by delivery from the bloodstream” value ([1]; monocular eye-drop) is reported as “about 10%”. For the same compound, the “share of drug reaching the retina by intra-global redistribution of the eye-drop” value ([1]; monocular eye-drop) was 90%, the “tissues with detectable compound in contralateral untreated eye (OS)” value ([1]; monocular eye-drop to OD) was “detected only in the cornea, posterior sclera, and retina” and the “time to complete clearance from plasma” value ([1]; ocular instillation to one eye (OD), 0.12 mg/eye) was ≤ 24 h. For the same compound, the “levels in cornea, anterior sclera and bulbar conjunctiva relative to ciliary body/iris, posterior sclera and retina” value ([1]; treated eye (OD)) was “about 100 fold”, the pA2 (vascular IP receptor) was 8.2 and the “drug level delivered to the anterior chamber of the eye as an eye drop” value ([2]; eye drop) was > 1 µg/g. For the same compound, the “biodistribution dose gradient, eye drops” value ([2]; eye drops) was “cornea≥conjunctiva≥anterior sclera≈iris≥ciliary body≥posterior sclera≥aqueous humor≥retina”, the “retina distribution after eye-drop” value ([2]; eye-drop administration) was “less than 60 ng/g” and the Cmax ([2]; male, New Zealand, rabbit, plasma, topical or ocular, ocular instillation to both eyes, 0.12 mg/eye, at 0.5 hours post-dose) was ~2 ng/mL. The “plasma clearance at 24 hours post dose” value ([2]; ocular instillation to both eyes, 0.12 mg/eye) was “good clearance”, the “VEGF release induced by cicaprost in the presence of TNFα” value (IP receptor) was “abolished” and the pKi (PAF receptor) was 7.9. The “% of administered dose, Right cornea” value [3, 4] was 0.00%, the “% of administered dose, Right retina” value [3, 4] was 0.09% and the “% of administered dose, Right upper eyelid” value [3, 4] was 0.64%. The “% of administered dose, Right vitreous humor” value [3, 4] was 4.67%, the “% of administered dose, Right cornea” value [3, 5] was 0.00% and the “% of administered dose, Right retina” value [3, 5] was 0.26%. The “% of administered dose, Right upper eyelid” value [3, 5] was 1.50%, the “% of administered dose, Right vitreous humor” value [3, 5] was 2.91% and the “% of administered dose, Right cornea” value [3, 6] was 0.00%. For the same compound, the “% of administered dose, Right retina” value [3, 6] was 0.25%, the “% of administered dose, Right upper eyelid” value [3, 6] was 0.48% and the “% of administered dose, Right vitreous humor” value [3, 6] was 3.13%. For the same compound, the “% of administered dose, Right cornea” value [3, 7] was 0.00%, the “% of administered dose, Right retina” value [3, 7] was 0.05% and the “% of administered dose, Right upper eyelid” value [3, 7] was 0.60%. For the same compound, the “% of administered dose, Right vitreous humor” value [3, 7] was 1.79%, the “Drug Concentration in Plasma” value ([3]; 24 h, 159.260 μg/right eye periorbital skin, animal 104, LLOQ 0.1 ng/ml) was “BLQ” and the “drug level in retina at all tested time points” value ([3]; NIODP 165.30±4.65 μg/eye (OD)) was “greater than 1000 ng/g”. The “drug level delivered to retina via NIODP” value ([3]; all tested time points) was > 1 µg/g, the plasma concentrations ([3]; all time points, LLOQ 0.1 ng/ml) was “less than 0.3 ng/ml” and the Cmax ([3]; cynomolgus monkey, plasma, topical or ocular, 0.16 mg, single dose monocular periorbital administration, over the 6 hour post-dose period) was 0.13 to 0.26 ng/mL. It also gave a concentration at 3 h ([3]; cynomolgus monkey, plasma, 3 h, 160.580 μg/right eye periorbital skin, animal 102, read-out: Drug Concentration in Plasma) of 0.21 ng/mL, a concentration at 6 h ([3]; cynomolgus monkey, plasma, 6 h, 162.230 μg/right eye periorbital skin, animal 103, read-out: Drug Concentration in Plasma) of 0.26 ng/mL and a concentration at 0.5 h ([3]; cynomolgus monkey, plasma, 0.5 h, 179.120 μg/right eye periorbital skin, animal 101, read-out: Drug Concentration in Plasma) of 0.131 ng/mL. For the same compound, the concentration at 24 h ([3]; cynomolgus monkey, right cornea, 24 h, 159.260 μg/right eye periorbital skin, read-out: Drug Concentration in Tissue, Right cornea) was 5.5 ng/g, the concentration at 3 h ([3]; cynomolgus monkey, right cornea, 3 h, 160.580 μg/right eye periorbital skin, read-out: Drug Concentration in Tissue, Right cornea) was 27.9 ng/g and the concentration at 6 h ([3]; cynomolgus monkey, right cornea, 6 h, 162.230 μg/right eye periorbital skin, read-out: Drug Concentration in Tissue, Right cornea) was 45.5 ng/g. It also gave a concentration at 0.5 h ([3]; cynomolgus monkey, right cornea, 0.5 h, 179.120 μg/right eye periorbital skin, read-out: Drug Concentration in Tissue, Right cornea) of 39.6 ng/g, a concentration at 24 h ([3]; cynomolgus monkey, right retina, 24 h, 159.260 μg/right eye periorbital skin, read-out: Drug Concentration in Tissue, Right retina) of 1620 ng/g and a concentration at 3 h ([3]; cynomolgus monkey, right retina, 3 h, 160.580 μg/right eye periorbital skin, read-out: Drug Concentration in Tissue, Right retina) of 16700 ng/g. For the same compound, the concentration at 6 h ([3]; cynomolgus monkey, right retina, 6 h, 162.230 μg/right eye periorbital skin, read-out: Drug Concentration in Tissue, Right retina) was 23900 ng/g, the concentration at 0.5 h ([3]; cynomolgus monkey, right retina, 0.5 h, 179.120 μg/right eye periorbital skin, read-out: Drug Concentration in Tissue, Right retina) was 9300 ng/g and the concentration at 24 h ([3]; cynomolgus monkey, right upper eyelid, 24 h, 159.260 μg/right eye periorbital skin, read-out: Drug Concentration in Tissue, Right upper eyelid) was 11600 ng/g. For the same compound, the concentration at 3 h ([3]; cynomolgus monkey, right upper eyelid, 3 h, 160.580 μg/right eye periorbital skin, read-out: Drug Concentration in Tissue, Right upper eyelid) was 32500 ng/g, the concentration at 6 h ([3]; cynomolgus monkey, right upper eyelid, 6 h, 162.230 μg/right eye periorbital skin, read-out: Drug Concentration in Tissue, Right upper eyelid) was 7950 ng/g and the concentration at 0.5 h ([3]; cynomolgus monkey, right upper eyelid, 0.5 h, 179.120 μg/right eye periorbital skin, read-out: Drug Concentration in Tissue, Right upper eyelid) was 26500 ng/g. For the same compound, the concentration at 24 h ([3]; cynomolgus monkey, right vitreous humor, 24 h, 159.260 μg/right eye periorbital skin, read-out: Drug Concentration in Tissue, Right vitreous humor) was 19 ng/g, the concentration at 3 h ([3]; cynomolgus monkey, right vitreous humor, 3 h, 160.580 μg/right eye periorbital skin, read-out: Drug Concentration in Tissue, Right vitreous humor) was 7.79 ng/g and the concentration at 6 h ([3]; cynomolgus monkey, right vitreous humor, 6 h, 162.230 μg/right eye periorbital skin, read-out: Drug Concentration in Tissue, Right vitreous humor) was 3.9 ng/g. For the same compound, the concentration at 0.5 h ([3]; cynomolgus monkey, right vitreous humor, 0.5 h, 179.120 μg/right eye periorbital skin, read-out: Drug Concentration in Tissue, Right vitreous humor) was 15.2 ng/g, the “biodistribution via NIODP” value ([3]; periorbital skin) was “eyelid≥retina>>cornea≥vitreous humor” and the “time to complete clearance from plasma” value ([3]; single dose monocular periorbital administration) was ≤ 24 h.
